Measured values: patent publication US20090069320A1, “Substituted 4-Amino-Quinazoline Compounds with Metabotropic Glutamate Receptor Regulating Activity and Uses Thereof” (Gruenenthal GmbH, priority 2006, published 2009)
Counter-ions that a name gives are not always drawn.

How the values were obtained:
mGluR5 receptor (human) = biological target: T1, mGluR5 receptor (human) (Homo sapiens, UniProt P41594); assay: Functional Ca2+ influx assay in CHO-hmGluR5 cells (DHPG 10 μM, FLIPR); assay type: cell-based
T1 construct: host or cells: CHO
Procedure: V. Functional Ca^2+ Influx Assay
20,000 CHO-hmGluR5 cells/well (Euroscreen, Gosselies, Belgium) are pipetted into 96-well plates (BD Biosciences, Heidelberg, Germany, Ref. 356640, clear bottom, 96-well, poly-D-lysine) and incubated overnight in HBSS buffer (Gibco 14025-050) with the following additions: 10% FCS (GIBCO, 10270-106) and doxycycline (BD Biosciences Clontech 631311 600 ng/ml).
For the functional study the cells were charged with 2 μM of Fluo-4 and 0.01% by vol. pluronic F127 (Molecular Probes Europe BV, Leiden, The Netherlands) in HBSS buffer (Hank's buffered saline solution, Gibco Invitrogen GmbH, Karlsruhe, Germany) with probenicide (Sigma P8761, […]) for 30 min. at 37° C.
The cells are then washed 3 times with washing buffer (HBSS buffer, Gibco No. 14025-050), with probenicide (Sigma P8761, 0.69 mg/ml) and then taken up with the same buffer ad 100 μl. After 15 min. the plates for determining the Ca^2+ measurements in the presence of DHPG ((S)-3,5-dihydroxyphenylglycine, Tocris Biotrend Chemikalien GmbH, Cologne, Germany, final DHPG concentration: 10 μM) and also in the presence or absence of test substances are transferred into a fluorometric imaging plate reader (FLIPR, Molecular Devices, Sunnyvale, Calif.).
The Ca^2+-dependent fluorescence is measured before and after the addition of test substances. The quantification occurs through the measurement of the highest fluorescence intensity over time. After the fluorescence base line has been recorded for 10 sec. 50 μl of test substance solution (different test substance concentrations in HBSS buffer with 1% DMSO and 0.02% Tween 20, Sigma) are added and the fluorescence signal is measured for 6 min. 50 μl of DHPG solution ((S)-3,5-dihydroxyphenylglycine, Tocris Biotrend Chemikalien GmbH, Cologne, Germany, final DHPG concentration: 10 μM) are then added and the influx of Ca^2+ is measured simultaneously for 60 sec. The final DMSO concentration amounts to 0.25% and the final Tween 20 content amounts to 0.005%. The data are analysed with Microsoft Excel and GraphPad Prism. The dose effect curves are calculated with non-linear regression and IC50 values determined. Each data point is determined 3 times and IC50 values are averaged from a minimum of 2 independent measurements. Ki values are calculated according to the following formula:
Ki=IC50/(1+(AGconc./EC50)).
AGconc.=10 μM; EC50 corresponds to the DHPG concentration necessary for the half-maximum influx of Ca^2+.

mGluR5 receptor = biological target: T2, mGluR5 receptor (Sus scrofa, UniProt I3LUI7); assay: [3H]-MPEP mGluR5 receptor binding assay (pig brain homogenate); conditions: 5 nM [3H]-MPEP; for IC50: read-out: IC50 mGluR5 Receptor (pig) [^3H]-MPEP Bond; for inhibition at 10 µM: read-out: % Inhibition of mGluR5 Receptor (pig) [^3H]-MPEP Bond at 10 μM
T2 construct: 450 μg of protein from brain homogenate with 5 nM ^3[H]-MPEP; from tissue; host or cells: pig brain halves without medulla, cerebellum and pons
Summary of the method: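 Compounds at 10 μM competed with 5 nM [3H]-MPEP for binding to pig brain membranes (450 μg protein) for 60 min at room temperature in pH 8.0 Hepes buffer. Bound radioactivity was collected on glass-fibre filters and read by β-counting, with 10 μM unlabelled MPEP giving non-specific binding.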

T1 sequence (P41594 21-1212): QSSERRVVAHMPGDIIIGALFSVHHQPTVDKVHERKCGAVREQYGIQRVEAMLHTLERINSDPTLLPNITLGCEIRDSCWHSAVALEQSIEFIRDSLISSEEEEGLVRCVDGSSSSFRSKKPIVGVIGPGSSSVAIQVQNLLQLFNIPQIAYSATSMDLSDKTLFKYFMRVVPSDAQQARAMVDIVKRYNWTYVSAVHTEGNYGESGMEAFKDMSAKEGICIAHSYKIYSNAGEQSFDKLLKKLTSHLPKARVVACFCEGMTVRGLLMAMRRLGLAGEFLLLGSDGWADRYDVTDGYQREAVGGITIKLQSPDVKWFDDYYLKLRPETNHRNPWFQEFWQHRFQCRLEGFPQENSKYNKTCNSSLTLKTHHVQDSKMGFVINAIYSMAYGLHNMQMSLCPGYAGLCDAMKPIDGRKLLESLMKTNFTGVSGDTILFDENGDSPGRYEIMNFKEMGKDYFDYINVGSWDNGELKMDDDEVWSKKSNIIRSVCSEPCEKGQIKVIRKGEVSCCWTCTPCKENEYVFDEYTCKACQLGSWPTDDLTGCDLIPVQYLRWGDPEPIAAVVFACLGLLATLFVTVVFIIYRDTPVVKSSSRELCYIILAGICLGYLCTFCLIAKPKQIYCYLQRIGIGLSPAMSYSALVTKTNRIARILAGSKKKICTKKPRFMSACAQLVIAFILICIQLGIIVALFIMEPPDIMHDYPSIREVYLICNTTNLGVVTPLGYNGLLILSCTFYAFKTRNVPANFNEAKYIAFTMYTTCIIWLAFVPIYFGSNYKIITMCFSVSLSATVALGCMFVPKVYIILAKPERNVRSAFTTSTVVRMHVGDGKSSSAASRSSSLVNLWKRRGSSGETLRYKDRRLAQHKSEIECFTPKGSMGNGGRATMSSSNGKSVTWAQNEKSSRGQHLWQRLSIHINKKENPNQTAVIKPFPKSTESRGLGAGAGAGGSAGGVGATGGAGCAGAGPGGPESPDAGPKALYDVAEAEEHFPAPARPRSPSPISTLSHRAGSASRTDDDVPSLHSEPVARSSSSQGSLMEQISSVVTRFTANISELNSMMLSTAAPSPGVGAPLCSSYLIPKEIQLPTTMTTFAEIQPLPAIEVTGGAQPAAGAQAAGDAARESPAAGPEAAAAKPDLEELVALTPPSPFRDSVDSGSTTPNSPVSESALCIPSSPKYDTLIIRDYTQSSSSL
T2 sequence (I3LUI7 19-1212): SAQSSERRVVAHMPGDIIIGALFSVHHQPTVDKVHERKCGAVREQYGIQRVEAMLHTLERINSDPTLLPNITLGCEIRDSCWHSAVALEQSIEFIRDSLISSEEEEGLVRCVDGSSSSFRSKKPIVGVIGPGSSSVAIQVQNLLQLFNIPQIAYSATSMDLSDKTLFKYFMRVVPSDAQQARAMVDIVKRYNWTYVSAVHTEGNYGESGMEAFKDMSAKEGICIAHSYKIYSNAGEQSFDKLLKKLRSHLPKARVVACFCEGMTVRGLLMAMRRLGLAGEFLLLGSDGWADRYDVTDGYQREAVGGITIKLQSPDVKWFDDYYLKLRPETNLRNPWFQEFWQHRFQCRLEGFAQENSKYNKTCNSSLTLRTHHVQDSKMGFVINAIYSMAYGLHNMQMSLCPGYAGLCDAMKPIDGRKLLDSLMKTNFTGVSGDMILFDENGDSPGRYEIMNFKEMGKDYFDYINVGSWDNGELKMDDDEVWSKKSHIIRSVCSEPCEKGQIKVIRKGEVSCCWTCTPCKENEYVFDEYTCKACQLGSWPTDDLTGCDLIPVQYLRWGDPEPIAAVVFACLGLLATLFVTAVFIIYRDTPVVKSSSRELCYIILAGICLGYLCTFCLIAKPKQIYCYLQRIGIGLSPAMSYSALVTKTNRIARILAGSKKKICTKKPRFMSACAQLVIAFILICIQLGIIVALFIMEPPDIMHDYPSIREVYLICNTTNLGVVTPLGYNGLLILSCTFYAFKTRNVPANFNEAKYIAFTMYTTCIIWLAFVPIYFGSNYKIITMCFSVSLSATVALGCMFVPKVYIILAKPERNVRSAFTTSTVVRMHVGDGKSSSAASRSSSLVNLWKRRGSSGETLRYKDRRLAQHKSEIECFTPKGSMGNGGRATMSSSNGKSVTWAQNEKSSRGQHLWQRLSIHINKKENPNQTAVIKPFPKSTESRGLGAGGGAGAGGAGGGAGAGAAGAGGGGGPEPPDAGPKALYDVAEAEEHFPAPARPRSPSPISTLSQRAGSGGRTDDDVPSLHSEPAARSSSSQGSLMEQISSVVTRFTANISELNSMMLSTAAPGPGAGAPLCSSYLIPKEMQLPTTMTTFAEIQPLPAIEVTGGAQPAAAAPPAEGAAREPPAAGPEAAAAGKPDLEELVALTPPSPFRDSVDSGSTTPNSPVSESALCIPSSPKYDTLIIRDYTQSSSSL

Ki (mGluR5 receptor (human)) [µM] | IC50 (mGluR5 receptor) [µM] | inhibition at 10 µM (mGluR5 receptor; 10 μM compound) [%] | % Inhibition of mGluR5 Receptor (pig) [^3H]-MPEP Bond at 10 μM (mGluR5 receptor; 10 μM compound) [%] | Structure (SMILES)
0.0084 | 0.07 | – | – | N#CCC(=O)N(Cc1cccc(-c2ccc3ncnc(NC4CC4)c3c2)c1)C1CC1 [Example 211, 2-cyano-N-cyclopropyl-N-[3-(4-cyclopropylamino-quinazolin-6-yl)-benzyl]-acetamide]
0.0075 | – | – | – | O=C(c1ccccc1)N(Cc1cccc(-c2ccc3ncnc(N4CCCC4)c3c2)c1)C1CC1 [Example 121, N-cyclopropyl-N-[3-(4-pyrrolidin-1-yl-quinazolin-6-yl)-benzyl]-benzamide]
0.039 | 0.2 | – | – | COc1ccc(CN(C(C)=O)C2CC2)cc1-c1ccc2ncnc(NC3CC3)c2c1 [Example 261, N-cyclopropyl-N-[3-(4-cyclopropylamino-quinazolin-6-yl)-4-methoxy-benzyl]-acetamide]
0.0017 | 0.03 | – | – | O=C(N(Cc1cccc(-c2ccc3ncnc(NC4CC4)c3c2)c1)C1CC1)C(F)(F)F [Example 273, N-cyclopropyl-N-(3-(4-(cyclopropylamino)quinazolin-6-yl)benzyl)-2,2,2-trifluoroacetamide]
0.0052 | 0.14 | – | – | CC1CC(=O)N(Cc2cccc(-c3ccc4ncnc(NC5CC5)c4c3)c2)C1=O (stereo not shown) [Example 245, 1-[3-(4-cyclopropylamino-quinazolin-6-yl)-benzyl]-3-methyl-pyrrolidine-2,5-dione]
0.0511 | 0.04 | – | – | CCOC(=O)N(Cc1cccc(-c2ccc3ncnc(NC4CC4)c3c2)c1)C1CC1 [Example 875, ethyl cyclopropyl(3-(4-(cyclopropylamino)quinazolin-6-yl)benzyl)carbamate]
0.005 | 0.12 | – | – | COc1ccc(CN(C2CC2)S(C)(=O)=O)cc1-c1ccc2ncnc(NC3CC3)c2c1 [Example 250, N-cyclopropyl-N-(3-(4-(cyclopropylamino)quinazolin-6-yl)-4-methoxybenzyl)methane sulfonamide]
0.0059 | 0.11 | – | – | CC(=O)N(Cc1cc(-c2ccc3ncnc(NC4CC4)c3c2)cs1)C1CC1 [Example 262, N-cyclopropyl-N-[4-(4-cyclopropylamino-quinazolin-6-yl)-thiophen-2-ylmethyl]-acetamide]
0.0033 | – | 55 | – | CC(=O)N(Cc1cccc(-c2ccc3ncnc(NC4CC4)c3c2)c1)C(C)(C)C [Example 202, N-tert-butyl-N-[3-(4-cyclopropylamino-quinazolin-6-yl)-benzyl]-acetamide]
0.0039 | 0.05 | – | – | O=C1CCC(=O)N1Cc1cccc(-c2ccc3ncnc(NC4CC4)c3c2)c1 [Example 258, 1-[3-(4-cyclopropylamino-quinazolin-6-yl)-benzyl]-pyrrolidine-2,5-dione]
0.012 | 0.28 | – | – | CS(=O)(=O)N(Cc1cccc(-c2ccc3ncnc(NC4CC4)c3c2)c1)C1CC1 [Example 270, N-cyclopropyl-N-(3-(4-(cyclopropylamino)quinazolin-6-yl)benzyl)methane sulfonamide]
0.0027 | 0.07 | – | – | O=C1CCC(=O)N1Cc1cccc(-c2cc3c(NC4CC4)ncnc3cc2F)c1 [Example 882, 1-(3-(4-(cyclopropylamino)-7-fluoroquinazolin-6-yl)benzyl)pyrrolidine-2,5-dione]
0.0082 | 0.14 | – | – | CC(=O)N(Cc1cccc(-c2ccc3ncnc(NC4CC4)c3c2)c1)C1CC1 [Example 271, N-cyclopropyl-N-(3-(4-(cyclopropylamino)quinazolin-6-yl)benzyl)acetamide]
0.0047 | 0.09 | – | – | CC(C)(C)Nc1ncnc2ccc(-c3cccc(CN4C(=O)CCC4=O)c3)cc12 [Example 196, 1-[3-(4-tert-butylamino-quinazolin-6-yl)-benzyl]-pyrrolidine-2,5-dione hydrochloride]
– | – | 43 | – | Cc1cc2ncnc(NC3CC3)c2cc1-c1cccc(CN(C(=O)CN(C)C)C2CC2)c1 [Example 723, N-cyclopropyl-N-(3-(4-(cyclopropylamino)-7-methylquinazolin-6-yl)benzyl)-2-(dimethylamino)acetamide]
– | – | 81 | – | O=C(c1cccs1)N(Cc1cccc(-c2cc(F)c3ncnc(NC4CC4)c3c2)c1)C1CC1 [Example 685, N-cyclopropyl-N-(3-(4-(cyclopropylamino)-8-fluoroquinazolin-6-yl)benzyl)thiophene-2-carboxamide]
0.008 | 0.28 | – | – | O=C(c1ccccc1)N(Cc1cc(-c2ccc3ncnc(NC4CC4)c3c2)ccc1F)C1CC1 [Example 269, N-cyclopropyl-N-(5-(4-(cyclopropylamino)quinazolin-6-yl)-2-fluorobenzyl)benzamide]
– | 3.11 | – | – | Fc1ccc(-c2ccc3ncnc(NC4CC4)c3c2)c(F)c1CNC1CC1 [Example 304, N-cyclopropyl-6-(3-((cyclopropylamino)methyl)-2,4-difluorophenyl)quinazoline-4-amine]
– | – | – | 89 | CCCCC(=O)N(Cc1cc(-c2ccc3ncnc(NC(C)(C)C)c3c2)ccc1F)C1CC1 [Example 856, N-(5-(4-(tert-butylamino)quinazolin-6-yl)-2-fluorobenzyl)-N-cyclopropyl pentanamide]
– | – | 97 | – | O=C(Cc1ccccn1)N(Cc1cccc(-c2ccc3ncnc(NC4CC4)c3c2)c1)C1CC1 [Example 174, N-cyclopropyl-N-[3-(4-cyclopropylamino-quinazolin-6-yl)-benzyl]-2-pyridin-2-yl-acetamide]
– | – | 90 | – | COCC(=O)N(Cc1cccc(-c2cc(F)c3ncnc(NC4CC4)c3c2)c1)C1CC1 [Example 744, N-cyclopropyl-N-(3-(4-(cyclopropylamino)-8-fluoroquinazolin-6-yl)benzyl)-2-methoxyacetamide]
– | – | 93 | – | O=C(c1ccco1)N(Cc1cc(-c2ccc3ncnc(NC4CC4)c3c2)ccc1Cl)C1CC1 [Example 746, N-(2-chloro-5-(4-(cyclopropylamino)quinazolin-6-yl)benzyl)-N-cyclopropylfuran-2-carboxamide]
– | 2.65 | – | – | c1ccc(N(Cc2cccc(-c3ccc4ncnc(NC5CC5)c4c3)c2)C2CC2)nc1 [Example 888, N-cyclopropyl-6-(3-((cyclopropyl(pyridin-2-yl)amino)methyl)phenyl)quinazoline-4-amine]
– | – | 91 | – | O=S(=O)(c1cccs1)N(Cc1cc(-c2ccc3ncnc(NC4CC4)c3c2)ccc1Cl)C1CC1 [Example 734, N-(2-chloro-5-(4-(cyclopropylamino)quinazolin-6-yl)benzyl)-N-cyclopropylthiophene-2-sulfonamide]
– | – | 51 | – | c1nc(NC2CC2)c2cc(-c3csc(CNC4CC4)c3)ccc2n1 [Example 300, N-cyclopropyl-6-(5-((cyclopropylamino)methyl)thiophen-3-yl)quinazoline-4-amine]
– | – | 83 | – | CC(C)S(=O)(=O)N(Cc1cc(-c2ccc3ncnc(NC4CC4)c3c2)ccn1)C1CC1 [Example 804, N-cyclopropyl-N-((4-(4-(cyclopropylamino)quinazolin-6-yl)pyridin-2-yl)methyl)propane-2-sulfonamide]
– | – | 69 | – | O=S(=O)(c1cccc2cccnc12)N(Cc1cc(-c2ccc3ncnc(NC4CC4)c3c2)ccc1Cl)C1CC1 [Example 742, N-(2-chloro-5-(4-(cyclopropylamino)quinazolin-6-yl)benzyl)-N-cyclopropylquinoline-8-sulfonamide]
– | 5.19 | – | – | CNc1ncnc2ccc(-c3cccc(CN4C(=O)CCC4=O)c3)cc12 [Example 198, 1-[3-(4-methylamino-quinazolin-6-yl)-benzyl]-pyrrolidine-2,5-dione]
– | 0.02 | – | – | O=C1CCC(=O)N1Cc1cccc(-c2cc(C(F)(F)F)c3ncnc(NC4CC4)c3c2)c1 [Example 883, 1-(3-(4-(cyclopropylamino)-8-(trifluoromethyl)quinazolin-6-yl)benzyl)pyrrolidine-2,5-dione]
